Source: patent US11291208B2, “Ternary herbicide combinations” (Bayer CropScience Aktiengesellschaft, priority 2013, dated 2022)

How the values were obtained:
Format in all cases: in vivo
[1] = tested on: TRZAW: Triticum aestivum (soft wheat); test: Crop damage in field trials (maximum damage observed in the crop)
Procedure: (§1) The seeds or rhizome pieces of typical harmful plants were planted and grown under natural outdoor conditions. After the harmful plants had emerged, they were treated, as a rule at the 2- to 4-leaf stage, with various dosages of the compositions according to the invention at a water application rate of […] (converted).
(§2) After the treatment (approx. 4-6 weeks after application), the herbidical activity of the active compounds or active compound mixtures was scored visually by comparing the treated plots with the untreated control plots. Damage and development of all above-ground parts of the plants was recorded. Scoring was done on a percentage scale (100% action=all plants dead; 50% action=50% of the plants and green plant parts dead; 0% action=no discernible action=like control plot). The score figures of in each case 4 plots were averaged.
(§3) The dose rates of herbicidal ingredients used in each case are indicated for the respective active ingredient in brackets and refer to the amount of active ingredient per hectare (g/ha).
(§4) The herbicidal effects observed for the herbicide (mixtures) are indicated in % Activity against the respective weed. The % Damage indicated refers to the maximum damage observed in the respective crop.
(§5) The results of the treatments are reflected in the Tables below, and the activity measured for the independent use of the active compounds (A+B)+(C) is stated in brackets. The treatments were carried out using Mesosulfuron-methyl (A1-1) or Mesosulfuron-methyl-sodium (A1-2) as component (A), and Iodosulfuron-methyl (B1-1) or Iodosulfuron-methyl-sodium (B1-2) as component (B). The results of the treatments in these cases were essentially identical.

[2] = tested on: CENCY: Centaurea Cyanus; test: Herbicidal action, outdoor/field trials, post-emergence; conditions: crop TRZAW, field trials
Procedure: as §1, §2
(§6) The growth stages of the different weed species are indicated according to the BBCH monograph “Growth stages of mono- and dicotyledonous plants”, 2nd edition, 2001, ed. Uwe Meier, Federal Biological Research Centre for Agriculture and Forestry (Biologische Bundesanstalt für Land and Forstwirtschaft). The respective BBCH stages are indicated in brackets for the different weed species.
as §3, §4, §5

[3] = tested on: VERPE: Veronica persica; test: as above; conditions: crop TRZAW, field trials
Procedure: as §1, §2, §6, §3, §4, §5

[4] = tested on: BROST: Bromus sterilis; test: as above; conditions: PXD 60 g/ha, BROST (25), crop TRZAW, field trials
Procedure: as §1, §2, §6, §3, §4, §5

[5] = tested on: VERHE: Veronica hederifolia; test: as above; conditions: PXD 60 g/ha, VERHE (71), crop TRZAW, field trials
Procedure: as §1, §2, §6, §3, §4, §5

[6] = tested on: GERDI: Geranium dissectum; test: as above; conditions: crop TRZAW, field trials
Procedure: as §1, §2, §6, §3, §4, §5

[7] = tested on: GALAP: Galium aparine; test: as above; conditions: crop TRZAW, field trials
Procedure: as §1, §2, §6, §3, §4, §5

[8] = tested on: PAPRH: Papaver rhoeas; test: as above; conditions: field trials
Procedure: as §1, §2, §6, §3, §4, §5

[9] = tested on: FUMOF: Fumaria officinalis; test: as above; conditions: HALXF 276.5 g/ha, crop TRZAW, field trials
Procedure: as §1, §2, §6, §3, §4, §5

[10] = tested on: TRZDU: Triticum aestivum (durum wheat); test: Crop damage in field trials (maximum damage observed in the crop); conditions: TCM 7.5 g/ha
Procedure: as §1, §2, §3, §4, §5

[11] = tested on: PICEC: Picris echioides; test: Herbicidal action, outdoor/field trials, post-emergence; conditions: Helminthotheca echioides, TCM 7.5 g/ha, PICEC (22), crop TRZDU, field trials
Procedure: as §1, §2, §6, §3, §4, §5

[12] = tested on: LOLRI: Lolium rigidum; test: as above
Procedure: as §1, §2, §6, §3, §4, §5

[13] = tested on: VIOAR: Viola arvensis; test: as above; conditions: TCM 7.5 g/ha, VIOAR (15), crop TRZAW, field trials
Procedure: as §1, §2, §6, §3, §4, §5

[14] = tested on: LAMAM: Lamium amplexicaule; test: as above; conditions: TCM 7.5 g/ha, LAMAM (32), crop TRZAW, field trials
Procedure: as §1, §2, §6, §3, §4, §5

[15] = tested on: LOLMU: Lolium multiflorum; test: as above; conditions: TCM 7.5 g/ha, LOLMU (23), crop TRZDU, field trials
Procedure: as §1, §2, §6, §3, §4, §5

[16] = tested on: AVEST: Avena sterilis; test: as above; conditions: TCM 7.5 g/ha, AVEST (23), crop TRZDU, field trials
Procedure: as §1, §2, §6, §3, §4, §5

[17] = tested on: MATIN: Matricaria inodora; test: as above; conditions: Tripleurospermum inodorum, TCM 7.5 g/ha, MATIN (19), crop TRZAW, field trials
Procedure: as §1, §2, §6, §3, §4, §5

[18] = tested on: LAMPU: Lamium purpureum; test: as above; conditions: TCM 7.5 g/ha, LAMPU (61), crop TRZAW, field trials
Procedure: as §1, §2, §6, §3, §4, §5

Compound: CCc1cc(C)cc(CC)c1-c1c(OC(=O)C(C)(C)C)n2n(c1=O)CCOCC2 [PXD, 8-(2,6-diethyl-4-methylphenyl)-1,2,4,5-tetrahydro-7-oxo-7H-pyrazolo[1,2-d][1,4,5]oxadiazepin-9-yl 2,2-dimethylpropanoate]
- % Damage ([1]; PXD 60 g/ha, listed as BROST (25)): 0%
- % Damage ([1]; PXD 60 g/ha, listed as CENCY (38)): 15%
- % Damage ([1]; PXD 60 g/ha, listed as GERDI (19)): 4%
- % Damage ([1]; PXD 60 g/ha, listed as VERHE (71)): 0%
- % Damage ([1]; PXD 60 g/ha, listed as VERPE (31)): 0%
- inhibition at 60 g/ha ([2]; PXD 60 g/ha, CENCY (38)): 60%
- inhibition at 60 g/ha ([3]; PXD 60 g/ha, VERPE (31)): 0%
- inhibition at 60 g/ha [4]: 0%
- inhibition at 60 g/ha [5]: 13%
- inhibition at 60 g/ha ([6]; PXD 60 g/ha, GERDI (19)): 30%

Compound: COc1c(Cl)ccc(-c2cc(N)c(Cl)c(C(=O)O)n2)c1F [HALXF, 4-amino-3-chloro-6-(4-chloro-2-fluoro-3-methoxyphenyl)-2-pyridinecarboxylic acid]
- % Damage ([1]; HALXF 276.5 g/ha, listed as CENCY): 0%
- % Damage ([1]; HALXF 276.5 g/ha, listed as FUMOF): 0%
- % Damage ([1]; HALXF 276.5 g/ha, listed as GALAP): 0%
- % Damage ([1]; HALXF 276.5 g/ha, listed as PAPRH): 0%
- inhibition at 276.5 g/ha ([2]; HALXF 276.5 g/ha, CENCY): 45%
- inhibition at 276.5 g/ha ([7]; HALXF 276.5 g/ha, GALAP): 73%
- inhibition at 276.5 g/ha ([8]; HALXF 276.5 g/ha, PAPRH, crop TRZAW): 75%
- inhibition at 276.5 g/ha [9]: 85%

Compound: COC(=O)c1csc(C)c1S(=O)(=O)NC(=O)n1nc(OC)n(C)c1=O [TCM, methyl 4-[(4,5-dihydro-3-methoxy-4-methyl-5-oxo-1H-1,2,4-triazol-1-yl)carbonylsulfamoyl]-5-methylthiophene-3-carboxylate]
- % Damage ([10]; listed as AVEST (23)): 0%
- % Damage ([10]; listed as AVEST (23), Table 1B): 0%
- % Damage ([10]; listed as LOLMU (23)): 0%
- % Damage ([10]; listed as LOLMU (23), Table 1B): 0%
- % Damage ([10]; listed as LOLRI (29)): 5%
- % Damage ([10]; listed as LOLRI (29), Table 1B): 5%
- % Damage ([10]; listed as PAPRH (15)): 0%
- % Damage ([10]; listed as PAPRH (15), Table 1B): 0%
- % Damage ([10]; listed as PICEC (22)): 5%
- % Damage ([10]; listed as PICEC (22), Table 1B): 5%
- % Damage ([1]; TCM 7.5 g/ha, listed as CENCY (19)): 0%
- % Damage ([1]; TCM 7.5 g/ha, listed as CENCY (19), Table 2B): 0%
- % Damage ([1]; TCM 7.5 g/ha, listed as GALAP (23)): 0%
- % Damage ([1]; TCM 7.5 g/ha, listed as GALAP (23), Table 2B): 0%
- % Damage ([1]; TCM 7.5 g/ha, listed as GERDI (29)): 0%
- % Damage ([1]; TCM 7.5 g/ha, listed as GERDI (29), Table 2B): 0%
- % Damage ([1]; TCM 7.5 g/ha, listed as LAMAM (32)): 1%
- % Damage ([1]; TCM 7.5 g/ha, listed as LAMAM (32), Table 2B): 1%
- % Damage ([1]; TCM 7.5 g/ha, listed as LAMPU (61)): 1%
- % Damage ([1]; TCM 7.5 g/ha, listed as LAMPU (61), Table 2B): 1%
- % Damage ([1]; TCM 7.5 g/ha, listed as MATIN (19)): 0%
- % Damage ([1]; TCM 7.5 g/ha, listed as MATIN (19), Table 2B): 0%
- % Damage ([1]; TCM 7.5 g/ha, listed as VERPE): 1%
- % Damage ([1]; TCM 7.5 g/ha, listed as VERPE, Table 2B): 1%
- % Damage ([1]; TCM 7.5 g/ha, listed as VIOAR (15)): 0%
- % Damage ([1]; TCM 7.5 g/ha, listed as VIOAR (15), Table 2B): 0%
- inhibition at 7.5 g/ha [11]: 69%
- inhibition at 7.5 g/ha ([12]; TCM 7.5 g/ha, LOLRI (29), crop TRZDU, field trials): 52%
- inhibition at 7.5 g/ha [13]: 38%
- inhibition at 7.5 g/ha [14]: 68%
- inhibition at 7.5 g/ha [15]: 43%
- inhibition at 7.5 g/ha ([2]; TCM 7.5 g/ha, CENCY (19)): 38%
- inhibition at 7.5 g/ha ([7]; TCM 7.5 g/ha, GALAP (23)): 37%
- inhibition at 7.5 g/ha ([3]; TCM 7.5 g/ha, VERPE): 10%
- inhibition at 7.5 g/ha [16]: 33%
- inhibition at 7.5 g/ha [17]: 20%
- inhibition at 7.5 g/ha ([8]; TCM 7.5 g/ha, PAPRH (15), crop TRZDU): 70%
- inhibition at 7.5 g/ha [18]: 70%
- inhibition at 7.5 g/ha ([6]; TCM 7.5 g/ha, GERDI (29)): 63%

Compound: COc1cc(OC)n2nc(NS(=O)(=O)c3c(C(F)(F)F)ccnc3OC)nc2n1 [PYX, N-(5,7-dimethoxy[1,2,4]triazolo[1,5-a]pyrimidin-2-yl)-2-methoxy-4-(trifluoromethyl)-3-pyridinesulfonamide]
- inhibition at 17 g/ha ([12]; PYX 17 g/ha, LOLRI (10)): 20%
